Reference: patent publication US9994564B2, “Myosin II ATPase inhibitor compounds” (priority 2014, dated 2018)
Values joined by “and” are separate entries in the source; they are usually repeats but may differ in a detail not shown here. Equal entries are not always repeated.

What was measured:
[1] = tested on: rat bladder smooth muscle strip (detrusor); assay: Relaxation of rat bladder strips pre-contracted with 60 mM KCl or 1 μM carbachol (organ bath); assay type: cell-based; settings: for bladder relaxation in vitro, enantiomer compared with racemic blebbistatin mixture: in vitro studies; for relaxation of KCl and CC evoked detrusor contraction: 60 mM KCl or 1 μM CC pre-contraction, maximal pre-contraction = 100%
Method: (§1) Experimental materials and methods: All chemical were from Sigma (St. Louis, USA) except (±) blebbistatin (racemic blebbistatin) was from Tocris (Ellisville, Mo.). […] Rat bladder body and aorta were obtained from 17 (275-300 gram) adult male Sprague-Dawley (SD) rats (Charles River; Raleigh, N.C.). All animal studies were approved by the Animal Institute Committee of the Albert Einstein College of Medicine.
In vitro organ bath studies: The in vitro contractility studies were performed as previously described by Zhang X, Kuppam D, Aydin M, Melman A, DiSanto M. “In vitro and in vivo relaxation of corpus cavernosum smooth muscle by the selective myosin II inhibitor, blebbistatin.” J Sex Med 2009; 6:2661-71, Sandhu K S, Chua R G, Zhang X, et al. “Regional heterogeneity in expression of the sphingosine-1-phosphate pathway in the female rat lower urinary tract”; Am J Obstet Gynecol 2009; 200:576-7; Chua R G, Calenda G, Zhang X, et al. “Testosterone regulates erectile function and Vcsal expression in the corpora of rats”; Mol Cell Endocrinol 2009; 303:67-73. Bladder strips were mounted longitudinally and aortic rings horizontally in a 5 ml organ bath—Multi-Myograph Model 810MS (bladder) or Model 610M (aorta) (Danish Myo Technology; Aarhus, Denmark). The myograph was connected in line to a PowerLab 4/30 Data Acquisition System (ADInstruments; Colorado Springs, Colo.) and in turn to a Dual-Core processor Pentium computer for real-time monitoring of physiological force. The smooth muscle strips were equilibrated at least 1 hour in Krebs-Henseleit (Krebs) buffer at 37° C. with continuous bubbling of 95% O2 and 5% CO2 and buffer was changed every 15 minutes (min). Strips were continuously adjusted to resting tension (0.5 g for rat bladder and 1 g for human bladder (Yamamoto M, Harm S C, Grasser W A, Thiede M A. “Parathyroid hormone-related protein in the rat urinary bladder: a smooth muscle relaxant produced locally in response to mechanical stretch.” Proc Natl Acad Sci USA 1992; 89:5326-30. After equilibration, rat detrusor was contracted with 60 mM KCl and the force induced by cumulative concentrations (10-5-10-1 M) of carbachol (CC) or electrical field stimulation (EFS) at varying frequencies of 2-32 Hz, pulse duration 1.5 ms, train 5 s, and 80 V, was normalized to that KCl response. Next, all strips were pre-contracted with 60 mM KCl, or 1 μM CC (rat bladder), or 20 nM endothelin-1 (ET-1) (human bladder) and allowed to reach stable tension and then the relaxant effects of increasing doses of blebbistatin were evaluated. For rat detrusor, after pre-incubation with blebbistatin (10 μM) for 30 min, its inhibitory effect on CC (1 μM) induced contractility or aforementioned EFS mediated contractility was also tested. Additionally, the influence of blebbistatin (10 μM) on rat detrusor spontaneous activity and basal tone was evaluated.

[2] = tested on: Non-muscle Myosin ATPases; settings: single concentration of 100 micromolar; Toth table IV; cited from earlier work
[3] = target: Porcine Cardiac Muscle Myosin II ATPase (Sus scrofa, UniProt P79293); settings: single concentration of 100 micromolar; Toth table IV; cited from earlier work
Chain of Porcine Cardiac Muscle Myosin II ATPase (P79293 whole entry): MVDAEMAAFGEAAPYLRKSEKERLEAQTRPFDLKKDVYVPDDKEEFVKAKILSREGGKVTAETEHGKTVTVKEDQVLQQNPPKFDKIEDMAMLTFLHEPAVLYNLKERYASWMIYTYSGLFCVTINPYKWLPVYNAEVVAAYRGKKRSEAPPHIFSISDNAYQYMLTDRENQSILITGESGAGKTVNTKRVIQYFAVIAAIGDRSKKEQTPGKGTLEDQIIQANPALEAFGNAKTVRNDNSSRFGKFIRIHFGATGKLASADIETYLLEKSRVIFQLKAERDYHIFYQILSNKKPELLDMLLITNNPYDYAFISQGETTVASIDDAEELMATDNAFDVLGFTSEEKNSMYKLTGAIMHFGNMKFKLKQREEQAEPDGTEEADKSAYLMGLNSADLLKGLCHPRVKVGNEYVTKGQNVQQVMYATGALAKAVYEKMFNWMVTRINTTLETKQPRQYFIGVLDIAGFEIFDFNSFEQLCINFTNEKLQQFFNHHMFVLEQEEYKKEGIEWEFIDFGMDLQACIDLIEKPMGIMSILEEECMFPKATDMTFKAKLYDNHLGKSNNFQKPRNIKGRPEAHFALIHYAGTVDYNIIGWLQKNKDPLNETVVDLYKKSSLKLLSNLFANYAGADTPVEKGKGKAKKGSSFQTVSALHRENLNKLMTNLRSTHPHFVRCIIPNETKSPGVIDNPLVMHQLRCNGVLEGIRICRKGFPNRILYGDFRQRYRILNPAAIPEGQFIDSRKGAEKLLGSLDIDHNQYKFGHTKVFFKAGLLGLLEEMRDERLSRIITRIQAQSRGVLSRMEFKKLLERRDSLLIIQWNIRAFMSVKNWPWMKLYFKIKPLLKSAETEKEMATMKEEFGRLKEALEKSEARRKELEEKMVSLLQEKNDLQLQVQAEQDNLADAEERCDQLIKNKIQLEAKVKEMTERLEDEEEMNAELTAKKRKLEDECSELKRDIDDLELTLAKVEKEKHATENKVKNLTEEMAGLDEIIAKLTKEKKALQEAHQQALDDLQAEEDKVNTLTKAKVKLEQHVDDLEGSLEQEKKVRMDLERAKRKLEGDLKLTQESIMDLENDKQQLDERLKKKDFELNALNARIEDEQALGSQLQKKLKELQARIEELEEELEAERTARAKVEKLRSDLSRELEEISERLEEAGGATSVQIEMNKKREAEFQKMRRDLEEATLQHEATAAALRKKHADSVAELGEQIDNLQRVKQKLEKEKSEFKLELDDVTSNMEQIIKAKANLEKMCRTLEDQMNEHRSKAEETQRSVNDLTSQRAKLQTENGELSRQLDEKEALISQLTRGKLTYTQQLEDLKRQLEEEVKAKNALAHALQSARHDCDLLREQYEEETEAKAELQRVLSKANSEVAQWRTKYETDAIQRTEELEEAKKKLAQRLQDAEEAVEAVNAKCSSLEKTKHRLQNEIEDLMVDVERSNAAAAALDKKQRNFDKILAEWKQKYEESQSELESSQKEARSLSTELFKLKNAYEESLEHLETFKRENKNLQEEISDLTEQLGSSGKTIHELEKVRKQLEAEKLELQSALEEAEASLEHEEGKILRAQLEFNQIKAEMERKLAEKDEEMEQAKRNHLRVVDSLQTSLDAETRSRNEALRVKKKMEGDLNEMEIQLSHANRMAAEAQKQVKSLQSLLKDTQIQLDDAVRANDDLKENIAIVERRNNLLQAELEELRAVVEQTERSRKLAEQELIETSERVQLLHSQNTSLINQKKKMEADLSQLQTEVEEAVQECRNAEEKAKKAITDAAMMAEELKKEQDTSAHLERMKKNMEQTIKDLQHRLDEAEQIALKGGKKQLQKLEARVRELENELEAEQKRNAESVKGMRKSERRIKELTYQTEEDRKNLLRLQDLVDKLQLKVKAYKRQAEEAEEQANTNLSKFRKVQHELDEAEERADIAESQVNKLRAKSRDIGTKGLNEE

[4] = tested on: rat bladder smooth muscle strip (detrusor); assay: Pre-incubation with blebbistatin: electrical field stimulation-induced rat bladder contraction; assay type: cell-based; settings: pre-incubation 10 μM for 30 min, 32 Hz
Method: as §1
In vitro organ bath studies: The in vitro contractility studies were performed as previously described by Zhang X, Kuppam D, Aydin M, Melman A, DiSanto M. “In vitro and in vivo relaxation of corpus cavernosum smooth muscle by the selective myosin II inhibitor, blebbistatin.” J Sex Med 2009; 6:2661-71, Sandhu K S, Chua R G, Zhang X, et al. “Regional heterogeneity in expression of the sphingosine-1-phosphate pathway in the female rat lower urinary tract”; Am J Obstet Gynecol 2009; 200:576-7; Chua R G, Calenda G, Zhang X, et al. “Testosterone regulates erectile function and Vcsal expression in the corpora of rats”; Mol Cell Endocrinol 2009; 303:67-73. […] Next, all strips were pre-contracted with 60 mM KCl, or 1 μM CC (rat bladder), or 20 nM endothelin-1 (ET-1) (human bladder) and allowed to reach stable tension and then the relaxant effects of increasing doses of blebbistatin were evaluated. […]

[5] = target: Non-muscle Myosin IIA ATPase (Homo sapiens, UniProt P35579); settings: read-out: IC50, inhibition of Non-muscle Myosin IIA ATPase; cited from earlier work
Chain of Non-muscle Myosin IIA ATPase (P35579 whole entry): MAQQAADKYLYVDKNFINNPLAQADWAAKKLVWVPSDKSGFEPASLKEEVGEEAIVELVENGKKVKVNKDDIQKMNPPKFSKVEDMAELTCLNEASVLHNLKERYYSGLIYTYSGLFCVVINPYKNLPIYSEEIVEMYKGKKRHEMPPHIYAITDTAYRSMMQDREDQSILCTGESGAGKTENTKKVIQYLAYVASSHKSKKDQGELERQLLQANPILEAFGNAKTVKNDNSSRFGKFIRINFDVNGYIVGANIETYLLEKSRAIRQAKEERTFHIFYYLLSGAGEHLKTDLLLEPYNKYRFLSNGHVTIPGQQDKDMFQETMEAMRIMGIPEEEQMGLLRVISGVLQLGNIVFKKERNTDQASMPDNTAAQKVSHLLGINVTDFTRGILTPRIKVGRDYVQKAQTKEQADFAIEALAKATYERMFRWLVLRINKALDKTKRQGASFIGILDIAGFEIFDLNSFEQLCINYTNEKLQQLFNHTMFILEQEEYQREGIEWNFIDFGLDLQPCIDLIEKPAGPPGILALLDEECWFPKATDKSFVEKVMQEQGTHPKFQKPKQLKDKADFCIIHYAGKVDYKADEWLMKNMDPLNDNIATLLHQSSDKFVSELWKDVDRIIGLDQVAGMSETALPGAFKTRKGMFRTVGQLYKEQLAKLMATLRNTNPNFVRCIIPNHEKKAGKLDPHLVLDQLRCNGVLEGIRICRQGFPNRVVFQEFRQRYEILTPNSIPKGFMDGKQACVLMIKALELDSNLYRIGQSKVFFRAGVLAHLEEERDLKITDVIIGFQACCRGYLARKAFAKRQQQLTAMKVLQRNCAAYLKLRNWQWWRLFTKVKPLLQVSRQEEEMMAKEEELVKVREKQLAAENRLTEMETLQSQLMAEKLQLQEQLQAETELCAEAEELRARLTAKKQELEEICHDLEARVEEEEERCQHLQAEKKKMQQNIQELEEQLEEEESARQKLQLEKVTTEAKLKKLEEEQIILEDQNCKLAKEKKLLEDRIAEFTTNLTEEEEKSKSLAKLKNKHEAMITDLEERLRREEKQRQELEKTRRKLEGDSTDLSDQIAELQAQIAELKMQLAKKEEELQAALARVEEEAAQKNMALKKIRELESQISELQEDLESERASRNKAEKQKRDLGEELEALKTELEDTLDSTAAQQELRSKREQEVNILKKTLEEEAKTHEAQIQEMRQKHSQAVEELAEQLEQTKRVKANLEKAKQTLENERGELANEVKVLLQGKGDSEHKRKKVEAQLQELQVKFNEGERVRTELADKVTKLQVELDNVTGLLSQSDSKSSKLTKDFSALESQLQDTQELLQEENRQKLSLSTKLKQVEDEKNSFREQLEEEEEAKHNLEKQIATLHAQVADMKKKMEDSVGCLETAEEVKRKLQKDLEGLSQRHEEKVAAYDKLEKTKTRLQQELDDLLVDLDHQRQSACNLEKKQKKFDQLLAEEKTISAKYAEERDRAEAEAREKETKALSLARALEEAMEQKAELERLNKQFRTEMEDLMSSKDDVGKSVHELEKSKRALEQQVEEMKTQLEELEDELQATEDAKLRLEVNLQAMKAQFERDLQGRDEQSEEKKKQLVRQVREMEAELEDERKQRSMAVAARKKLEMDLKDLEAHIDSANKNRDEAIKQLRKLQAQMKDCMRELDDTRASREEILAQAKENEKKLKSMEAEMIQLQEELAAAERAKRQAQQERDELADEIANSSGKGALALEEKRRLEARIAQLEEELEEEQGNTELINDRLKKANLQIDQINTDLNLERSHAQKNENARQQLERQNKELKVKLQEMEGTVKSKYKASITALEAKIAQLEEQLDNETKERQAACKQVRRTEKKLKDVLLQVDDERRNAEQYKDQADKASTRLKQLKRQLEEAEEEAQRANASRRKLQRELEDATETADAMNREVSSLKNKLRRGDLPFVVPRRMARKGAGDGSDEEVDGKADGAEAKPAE
Chain of Non-muscle Myosin IIA ATPase (P60660 whole entry partner): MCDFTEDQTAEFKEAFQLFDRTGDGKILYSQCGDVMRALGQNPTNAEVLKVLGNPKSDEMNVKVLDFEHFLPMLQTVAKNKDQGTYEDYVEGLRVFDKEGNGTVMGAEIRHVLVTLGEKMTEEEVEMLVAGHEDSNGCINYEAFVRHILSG
Chain of Non-muscle Myosin IIA ATPase (O14950 whole entry partner): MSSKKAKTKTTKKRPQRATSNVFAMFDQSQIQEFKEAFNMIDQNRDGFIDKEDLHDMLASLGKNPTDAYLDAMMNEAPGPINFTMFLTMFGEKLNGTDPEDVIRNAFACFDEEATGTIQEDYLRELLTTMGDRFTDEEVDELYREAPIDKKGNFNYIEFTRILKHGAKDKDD

[6] = target: Myosin II ATPase in rabbit striated skeletal muscle; settings: in vitro, read-out: IC50, inhibition of Myosin II ATPase; cited from earlier work
[7] = target: Myosin II ATPase in pig cardiac muscle (Sus scrofa, UniProt P79293); settings: in vitro, read-out: IC50, inhibition of Myosin II ATPase; cited from earlier work
Chain of Myosin II ATPase in pig cardiac muscle (P79293 whole entry): as the sequence (P79293 whole entry) above

[8] = target: Smooth Muscle Myosin II ATPase (turkey smooth muscle); settings: in vitro, read-out: IC50, inhibition of Smooth Muscle Myosin II ATPase; cited from earlier work
[9] = tested on: bladder of awake rat; assay: Awake rat cystometry (urodynamics) after intravesical blebbistatin; assay type: in vivo
Method: Cystometric evaluation of bladder function was performed as previously described on a separate set of 5 rats. See Malmgren A, Andersson P O, Uvelius B. “Bladder function in rats with short- and long-term diabetes; effects of age and muscarinic blockade” J Urol 1989; 142:1608-14; Melman A, Zotova E, Kim M, et al. “Longitudinal studies of time-dependent changes in both bladder and erectile function after streptozotocin-induced diabetes in Fischer 344 male rats” BJU Int 2009, 104:1292-300; Suadicani S O, Urban-Maldonado M, Tar M T, Melman A, Spray D C. “Effects of ageing and streptozotocin-induced diabetes on connexin43 and P2 purinoceptor expression in the rat corpora cavernosa and urinary bladder” BJU Int 2009; 103:1686-93. Under anesthesia, a PE 50 catheter with a cuff was surgically inserted into the bladder dome and exited through an orifice made in the back of the animal. […] The bladder catheter was connected to a 2-way valve that is, in turn connected to a pressure transducer as well as an infusion pump (model PHD 2000, Harvard Instruments; MA, USA). Rat bladder was infused with vehicle for 30 min and then cystometry was performed. After that, the same rat was treated with 250 nmols blebbistatin for the same period and cystometry was similarly repeated. One rat had bladder over-activity possibly due to post-surgical infection and thus blebbistatin was kept in the bladder for only about 5 min. The rate of infusion of room temperature saline was set at 10 ml/h. Bladder activity was continuously recorded after the first micturition, and subsequently at least 2 h of data were recorded from each rat. Statistical analysis: Results are expressed as mean±SEM for n experiments. Statistical analysis was performed using either the Student's t-test (when two sample treatments were being compared) or using ANOVA when multiple means were compared. p<0.05 was considered significant.
Bladder function was evaluated using the following urodynamic criteria: bladder capacity: (BC=volume of infused saline discharged at micturition); micturition volume (MV=the volume of urine discharged during micturition); residual volume (RV=volume of infused saline minus micturition volume); basal pressure (BP=the lowest average bladder pressure recorded during cystometry); micturition pressure (MP=peak bladder pressure during micturition); Bcom=bladder compliance; MF=micturition frequency; and the * indicates <0.05 vs vehicle.

[10] = tested on: rat bladder smooth muscle strip (detrusor); assay: Pre-incubation with blebbistatin: carbachol-induced rat detrusor contraction; assay type: cell-based; settings: for attenuation of carbachol (CC) responsiveness: pre-incubation 10 μM for 30 min, 1 μM CC
Method: as §1
(§2) In vitro organ bath studies: The in vitro contractility studies were performed as previously described by Zhang X, Kuppam D, Aydin M, Melman A, DiSanto M. “In vitro and in vivo relaxation of corpus cavernosum smooth muscle by the selective myosin II inhibitor, blebbistatin.” J Sex Med 2009; 6:2661-71, Sandhu K S, Chua R G, Zhang X, et al. “Regional heterogeneity in expression of the sphingosine-1-phosphate pathway in the female rat lower urinary tract”; Am J Obstet Gynecol 2009; 200:576-7; Chua R G, Calenda G, Zhang X, et al. “Testosterone regulates erectile function and Vcsal expression in the corpora of rats”; Mol Cell Endocrinol 2009; 303:67-73. Bladder strips were mounted longitudinally and aortic rings horizontally in a 5 ml organ bath—Multi-Myograph Model 810MS (bladder) or Model 610M (aorta) (Danish Myo Technology; Aarhus, Denmark). The myograph was connected in line to a PowerLab 4/30 Data Acquisition System (ADInstruments; Colorado Springs, Colo.) and in turn to a Dual-Core processor Pentium computer for real-time monitoring of physiological force. The smooth muscle strips were equilibrated at least 1 hour in Krebs-Henseleit (Krebs) buffer at 37° C. with continuous bubbling of 95% O2 and 5% CO2 and buffer was changed every 15 minutes (min). Strips were continuously adjusted to resting tension (0.5 g for rat bladder and 1 g for human bladder (Yamamoto M, Harm S C, Grasser W A, Thiede M A. “Parathyroid hormone-related protein in the rat urinary bladder: a smooth muscle relaxant produced locally in response to mechanical stretch.” Proc Natl Acad Sci USA 1992; 89:5326-30. After equilibration, rat detrusor was contracted with 60 mM KCl and the force induced by cumulative concentrations (10-5-10-1 M) of carbachol (CC) or electrical field stimulation (EFS) at varying frequencies of 2-32 Hz, pulse duration 1.5 ms, train 5 s, and 80 V, was normalized to that KCl response. Next, all strips were pre-contracted with 60 mM KCl, or 1 μM CC (rat bladder), or 20 nM endothelin-1 (ET-1) (human bladder) and allowed to reach stable tension and then the relaxant effects of increasing doses of blebbistatin were evaluated. […] Additionally, the influence of blebbistatin (10 μM) on rat detrusor spontaneous activity and basal tone was evaluated.

[11] = tested on: rat bladder strips; assay: Spontaneous contractions and basal tone of rat bladder strips; assay type: cell-based
Method: as §1, §2

[12] = tested on: human bladder smooth muscle strip; assay: Relaxation of human bladder (base) strips pre-contracted with 20 nM endothelin-1; assay type: cell-based; settings: for relaxation of human bladder pre-contracted with endothelin-1: 20 nM ET-1; for relaxation/block of endothelin-1 induced human bladder contraction (in words): dose-dependent
Method: as §1, §2

[13] = tested on: adult mouse bladder smooth muscle; settings: 10 uM; tissue depolarized using potassium chloride; cited from earlier work
[14] = tested on: newborn mouse bladder; settings: 10 uM; cited from earlier work
[15] = awake rats, intravesical 250 nmols blebbistatin 30 min, n = 5
[16] = with blebbistatin (10 μM), n = 15 strips from 6 rats

CN1[C@@H]2CC[C@H]1C[C@@H](OC(=O)C(CO)c1ccccc1)C2 (stereo partly shown) [atropine]
time needed to relax the muscle strip in vitro in a tissue bath [1]: 3 to 5 min

Cc1ccc2c(c1)C(=O)[C@]1(O)CCN(c3ccccc3)C1=N2 [(−)-blebbistatin, (−)-3aS-hydroxy-6-methyl-1-phenyl-1,2,3,3a-tetrahydro-4H-pyrrolo[2,3b] quinolin-4-one]
bladder relaxation in vitro, enantiomer compared with racemic blebbistatin mixture [1]: equipotent | inhibition of Non-muscle Myosin ATPases [2]: inhibited | inhibition of cardiac muscle Myosin ATPase [3]: inhibited

Cc1ccc2c(c1)C(=O)C1(O)CCN(c3ccccc3)C1=N2 (racemic) [blebbistatin, 3a-hydroxy-6-methyl-1-phenyl-1,2,3,3a-tetrahydro-4H-pyrrolo[2,3b]-quinolin-4-one]
time needed to relax the muscle strip in vitro in a tissue bath [1]: 30 to 60 min | baseline and peak phasic force of contraction (FIG. 3) ([1]; 10 uM, strip pre-contracted with 1 uM carbacol): significant decrease | relaxation of KCl and CC evoked detrusor contraction ([1]; 1 μm): 20-30% | relaxation of KCl and CC evoked detrusor contraction ([1]; 5 μm): 80-100% | relaxation of KCl and carbachol induced rat detrusor contraction (in words) ([1]; dose-dependent, 1-10 μM cumulative): completely relaxed | inhibition of EFS-induced bladder contraction [4]: about 50% | inhibition of EFS-induced bladder contraction ([4]; listed as racemic blebbistatin): 50% | IC50 [5]: 5.1 µM | IC50 [6]: 0.5 µM | IC50 [7]: 1.2 µM | IC50 [8]: 79.6 µM | BC (bladder capacity) [9, 15]: 1.4 +/− 0.16 * ml | BP (basal pressure) [9, 15]: 6.9 +/− 1.8 cm H20 | MF (micturition frequency) [9, 15]: 7.2 +/− 1.3 * | MP (micturition pressure) [9, 15]: 42 +/− 13 cmH20 | MV (micturition volume) [9, 15]: 1.4 +/− 10 * ml | RV (residual volume) [9, 15]: 0.03 ± 0.01 mL | decline of voiding frequency ([9]; rat with overactive bladder (OAB), blebbistatin kept in bladder about 5 min): over 50% | attenuation of carbachol (CC) responsiveness [10]: about 65% | attenuation of carbachol (CC) responsiveness ([10]; listed as BLEB): about 65% | attenuation of carbachol (CC) responsiveness ([10]; listed as racemic blebbistatin): ~65% | lowering of basal tone ([10]; pre-incubation 10 μm for 30 min): around 300 mg | decrease in the amplitude of spontaneous smooth muscle contractions ([11]; 10 am (so in the source)): ~60% | Amplitude of spontaneous contractions [11, 16]: 118 ± 19.33 mg and 120 ± 19 mg | Basal Tone [11, 16]: 310 ± 16 mg | Frequency of spontaneous contractions [11, 16]: 5.5 +/− 1.2 cycles/min | relaxation of human bladder pre-contracted with endothelin-1 ([12]; 1 μM): 60% | relaxation of human bladder pre-contracted with endothelin-1 ([12]; 3 am (so in the source)): ~100% | relaxation/block of endothelin-1 induced human bladder contraction (in words) [12]: completely blocked | relaxation/block of endothelin-1 induced human bladder contraction (in words) ([12]; listed as Racemic blebbistatin): completely relaxed | block of adult mouse bladder smooth muscle contraction [13]: did not block | inhibition of bladder contraction of a newborn mouse [14]: did inhibit

Cc1ccc2c(c1)C(=O)C1(O)CCN(c3ccccc3)C1=N2 (single isomer, unassigned; (+)) [(+)-blebbistatin]
bladder relaxation in vitro, enantiomer compared with racemic blebbistatin mixture [1]: did not induce significant bladder relaxation
